# Reference: patent US20050203117A1, “Treating allergic and inflammatory conditions” (priority 2002, published 2005)
# Test: in vivo studies of allergic bronchospasm and cough
compound,measurement,value
Clc1ccc2c(c1)CCc1cccnc1C2=C1CCNCC1 [desloratadine],effect on allergic bronchospasm and cough,inhibitory effect
